US20230312605A1, “PYRROLO[2,1-F][1,2,4]TRIAZINES AND PREPARATION AND USES THEREOF” (BioSplice Therapeutics, Inc., priority 2021, published 2023)

Key:
[1] = tested on: Tau phosphorylation at Thr212 (pThr212) in HEK293T cells transfected with DYRK1A and MAPT; experiment: phosphoTau (Thr212) AlphaLISA tau phosphorylation cell assay; type: cell-based; settings: HEK-293T, HEK293T cells transiently transfected with human DYRK1A and MAPT, compound treatment 18-24 hours, read-out: pTau (Thr212) EC50
Protocol: Representative compounds were screened using the assay procedure for tau phosphorylation activity described below.
HEK293T cells (ATCC, CRL3216) cultured in DMEM (Thermo Fisher Scientific, 10566024) supplemented with 10% FBS (Corning, 35-011-CV) and Penicillin/Streptomycin (Thermo Fisher Scientific, 15140163) were seeded in a 75 cm^2 flask at 8.1 × 10^6 cells/flask. The HEK293T cells were then transiently transfected with 5 µg DYRK1A (NM_001396) human untagged clone (OriGene, SC314641) and 2.5 µg MAPT (441 a.a. Tau gene) (NM_005910) human untagged clone (OriGene, TP313312) using Lipofectamine 3000 (Thermo Fisher Scientific, L30000015) and incubated for 20-30 hours in a humidified incubator at 37° C. and 5% CO^2. Post-incubation, HEK293T cells transfected with the DYRK1A and MAPT expression vectors were harvested and seeded in BioCoat poly-D lysine coated 96-well plates (Corning, 354461) at 3 × 10^4 cells/well.
The above synthesized compounds were screened using the cell assay procedure to assess decreased Tau phosphorylation at Thr212 (pThr212) described below.
Each compound was dissolved in DMSO (Sigma-Aldrich, D8418-100 mL) as a 10 mM stock. 10 mM stocks were serially diluted 1:3, 10-point dose-response curve and added to the cells with a final concentration ranging from 20 µM to 1.1 nM. Cells were treated with compounds in duplicate and incubated for 18-24 hours in a humidified incubator at 37° C. and 5% CO^2.
Following the overnight compound treatment, cells were lysed with 1X Alpha Surefire Ultra Lysis Buffer (Perkin Elmer, ALSU-LB-100ML) complemented with 1X Halt Phosphatase Inhibitor Cocktail (Thermo Fisher Scientific, 78427) and 1X Halt Protease Inhibitor Cocktail (Thermo Fisher Scientific, 78438). Lysates were spun down at 12,000 g for 10 min to remove any cellular debris and 5 µL of lysates were dispensed into a 384-well Opti-Plate (Perkin Elmer, 6007290) for the measurement of Tau phosphorylation in the phosphoTau (Thr212) AlphaLISA assay. Donor antibody, biotinylated HT7Tau (Thermo Fisher Scientific, MN1000B), and acceptor antibody, pThr212Tau (Thermo Fisher Scientific, 44740G) were both added to the cell lysates at a final concentration of 3 nM and incubated for 1 hour at room temperature. Following incubation of the lysates with the donor and acceptor antibodies, anti-rabbit IgG(Fc specific) AlphaLISA acceptor beads (Perkin Elmer, AL104C) were added at a 10 ug/mL final concentration and incubated for 1 hour at room temperature protected from light. Lastly, AlphaScreen streptavidin donor beads (PerkinElmer, 6760002) were added at 40 ug/mL final concentration and incubated for 1 hour at room temperature protected from light. Plates were read at Ex= […], and Em=615 nm on the EnVision Multilabel Plate Reader (Perkin Elmer)
phospho-Tau (Thr212) AlphaLISA signal was used to plot, draw the curve fitting, and determine each compound’s EC50 in Prism (GraphPad).

[2] = target: recombinant DYRK1A kinase (Homo sapiens (Human), UniProt Q13627); experiment: DYRK1A kinase assay (Ser/Thr 18 peptide Z-lyte FRET assay); type: biochemical; settings: recombinant DYRK1A 0.25 µg/mL, ATP 15 µM, Ser/Thr peptide 18 4 µM, one hour at room temperature; table head prints EC50, method says IC50
Method in brief: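 Z-lyte FRET format: 1 h room-temperature reaction of 15 µM ATP, 4 µM Ser/Thr 18 peptide and 0.25 µg/mL recombinant human DYRK1A, in duplicate over 11 compound concentrations up to 10 µM. IC50 was derived by non-linear regression of percent phosphorylation calculated from coumarin/fluorescein emission ratios.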

Row | Structure (SMILES) | EC50 [2] | EC50 [1]
1 | CC(C)(F)CNc1ncc2c(-c3cnc4nccn4c3)ccn2n1 [Compound 216, N-(2-Fluoro-2-methylpropyl)-5-(imidazo[1,2-a]pyrimidin-6-yl)pyrrolo[2,1-f] [1,2,4]triazin-2-amine] | 12 nM | 455 nM
2 | FC1(CNc2ncc3c(-c4cnc5nccn5c4)ccn3n2)COC1 [Compound 228, N-((3 -Fluorooxetan-3-yl)methyl)-5-(imidazo [1,2-a]pyrimidin-6-yl)pyrrolo [2,1-f][1,2,4]triazin-2-amine] | 13 nM | 292 nM
3 | CO[C@H]1CC[C@@H](Nc2ncc3c(-c4cnc5nccn5c4)ccn3n2)CC1 [Compound 259, 5-(Imidazo[1,2-a]pyrimidin-6-yl)-N-(cis-4-methoxycyclohexyl)pyrrolo[2,1-f][1,2,4]triazin-2-amine] | 7 nM | 150 nM
4 | c1cn2cc(-c3ccn4nc(NC5CC6(COC6)C5)ncc34)cnc2n1 [Compound 282, 5-(Imidazo[1,2-a]pyrimidin-6-yl)-N-(2-oxaspiro[3.3]heptan-6-yl)pyrrolo[2,1-f][1,2,4]triazin-2-amine] | 7 nM | 172 nM
5 | Cc1nc2ncc(-c3ccn4nc(NCC(C)(C)F)ncc34)cc2n1C(C)C [Compound 571, N-(2-Fluoro-2-methylpropyl)-5-(1-isopropyl-2-methyl-1H-imidazo[4,5-b]pyridin-6-yl)pyrrolo[2,1-f] [1,2,4]triazin-2-amine] | 11 nM | 725 nM
6 | CC(=O)N[C@]1(C)C[C@@H](Nc2ncc3c(-c4ccn5nccc5c4)ccn3n2)C1 [Compound 1983, N-(trans-1-Methyl-3-((5-(pyrazolo[1,5-a]pyridin-5-yl)pyrrolo[2,1-f][1,2,4]triazin-2-yl)amino)cyclobutyl)acetamide] | 1 nM | 
7 | COCC(=O)N[C@]1(C)C[C@@H](Nc2ncc3c(-c4ccc5nccnc5c4)ccn3n2)C1 [Compound 1985, 2-Methoxy-N-(trans-1-methyl-3-((5-(quinoxalin-6-yl)pyrrolo[2,1-f][1,2,4]triazin-2-yl)amino)cyclobutyl)acetamide] | 3 nM | 

Continued, in another order:

Row | EC50 [2] | Structure (SMILES) | EC50 [1]
8 | 23 nM | CC(C)(F)CNc1ncc2c(-c3ccc4nccn4c3)ccn2n1 [Compound 3, N-(2-Fluoro-2-methylpropyl)-5-(imidazo[1,2-a]pyridin-6-yl)pyrrolo[2,1-f] [1,2,4]triazin-2-amine] | 1840 nM
9 | 28 nM | FC1(F)CC(Nc2ncc3c(-c4ccc5nccn5c4)ccn3n2)C1 [Compound 23, N-(3,3-Difluorocyclobutyl)-5-(imidazo[1,2-a]pyridin-6-yl)pyrrolo[2,1-f] [1,2,4]triazin-2-amine] | 794 nM
10 | 11 nM | CO[C@H]1C[C@@H](Nc2ncc3c(-c4ccc5nccn5c4)ccn3n2)C1 [Compound 26, 5-(Imidazo[1,2-a]pyridin-6-yl)-N-(cis-3-methoxycyclobutyl)pyrrolo[2,1-f] [1,2,4]triazin-2-amine] | 238 nM
11 | 19 nM | FC1(F)CCC(Nc2ncc3c(-c4ccc5nccn5c4)ccn3n2)CC1 [Compound 43, N-(4,4-Difluorocyclohexyl)-5-(imidazo[1,2-a]pyridin-6-yl)pyrrolo[2,1-f] [1,2,4]triazin-2-amine] | 504 nM
12 | 25 nM | c1cn2cc(-c3ccn4nc(NC5COC5)ncc34)ccc2n1 [Compound 65, 5-(Imidazo[1,2-a]pyridin-6-yl)-N-(oxetan-3-yl)pyrrolo[2,1-f][1,2,4]triazin-2-amine] | 828 nM
13 | 5 nM | FC1(F)CCC(Nc2ncc3c(-c4cnc5nccn5c4)ccn3n2)CC1 [Compound 256, N-(4,4-Difluorocyclohexyl)-5-(imidazo[1,2-a]pyrimidin-6-yl)pyrrolo[2,1-f] [1,2,4]triazin-2-amine] | 220 nM
14 | 3 nM | FC1(F)CC2(CC(Nc3ncc4c(-c5cnc6nccn6c5)ccn4n3)C2)C1 [Compound 281, N-(6,6-Difluorospiro[3.3]heptan-2-yl)-5-(imidazo[1,2-a]pyrimidin-6-yl) pyrrolo[2,1-f] [1,2,4]triazin-2-amine] | 70 nM
